In US10834943B2, “Organic compounds having taste-modifying properties” (GIVAUDAN SA, priority 2013, dated 2020):

Assay: Mango-flavoured beverage evaluated by a panel of experienced tasters
Details: 0.5 ppm dosed to mango drink (mango flavour 0.05% w/w, mango juice 0.18% w/w, sugar 8% w/w, citric acid 0.1% w/w)
Protocol: A mango-flavoured beverage was prepared using a standard mango flavour (0.05% w/w), mango juice (0.18% w/w), sugar (8% w/w) and citric acid (0.1% w/w).

SMILES | taste of the mango drink versus the reference drink (panel agreement)
CCCCC/C=C\C/C=C\CCCCCCCC(=O)N1CCCC1C(=O)OC (centres unmarked) [Example 6, Methyl 1-((9Z,12Z)-octadeca-9,12-dienoyl)pyrrolidine-2-carboxylate] | more fruity and peach-like than the reference drink
CC/C=C\C/C=C\C/C=C\CCCCCCCC(=O)NC(C)C(=O)OC (centres unmarked) [Example 7, Methyl 2-((9Z,12Z,15Z)-octadeca-9,12,15-trienamido)propanoate] | more fully, more fatty than the reference drink
